Tested on: UCD patients
Assay: Example 3: TEAEs, serious and non-serious adverse events
Assay type: in vivo
Description: Sixteen newborn infants aged 0 to 27 days, and 10 infants and toddlers aged 28 days to 23 months received RAVICTI Oral Liquid administered just prior to breastfeeding or intake of formula or food. The recommended dosing regimen was 3-6 times per day depending on feeding schedule.
Number of Subjects with Treatment-Emergent Adverse Events (TEAEs), Serious TEAEs, Deaths, and Discontinuations Due to TEAEs
An adverse event (AE) is any untoward medical occurrence, whether or not the event is considered related to the study drug. A serious AE is any AE that: results in death; is life threatening; requires hospitalization or prolongation of existing hospitalization; results in disability/incapacity; is a congenital anomaly/birth defect; is an important medical event. TEAEs are defined as AEs with an onset date on or after the first dose of study medication until study discontinuation. The Investigator assessed the causal relationship of each TEAE to the study drug as not related, possibly related, or probably related. From the first dose of study treatment through 30 days after the final dose (mean [SD] duration of treatment was 9.13 [6.838] months).

[1] = Non-serious adverse events, Age 0 to <2 Months

O=C(CCCc1ccccc1)OCC(COC(=O)CCCc1ccccc1)OC(=O)CCCc1ccccc1 [RAVICTI, benzenebutanoic acid, 1′,1″-(1,2,3-propanetriyl) ester]
3: Anaemia, Occurrences (all) [1] | Ear infection, Occurrences (all) [1] | Flatulence, Occurrences (all) [1] | Hyperammonaemia, Occurrences (all) [1]
5: Cough, Occurrences (all) [1]
0/2: Serious AE Viral infection: Occurrences causally related to treatment/all (Age 2 Months to <2 Years)
0/1: Serious AE Gastroenteritis: Occurrences causally related to treatment/all (Age 2 Months to <2 Years) | Serious AE Influenza: Occurrences causally related to treatment/all (Age 2 Months to <2 Years) | Serious AE Peritonitis: Deaths causally related to treatment/all (Age 2 Months to <2 Years) | Serious AE Peritonitis: Occurrences causally related to treatment/all (Age 2 Months to <2 Years) | Serious AE Pneumatosis intestinalis: Deaths causally related to treatment/all (Age 2 Months to <2 Years) | Serious AE Pneumatosis intestinalis: Occurrences causally related to treatment/all (Age 2 Months to <2 Years) | Serious AE Pyrexia: Occurrences causally related to treatment/all (Age 2 Months to <2 Years) | Serious AE Status asthmaticus: Occurrences causally related to treatment/all (Age 2 Months to <2 Years) | Serious AE Urinary tract infection: Occurrences causally related to treatment/all (Age 2 Months to <2 Years) | Serious AE Viral upper respiratory tract infection: Occurrences causally related to treatment/all (Age 2 Months to <2 Years)
0/7: Serious AE Hyperammonaemia: Occurrences causally related to treatment/all (Age 2 Months to <2 Years)
0: Apnoea, Occurrences (all) [1] | Conjunctivitis, Occurrences (all) [1] | Dacryostenosis congenital, Occurrences (all) [1] | Ear and labyrinth disorders (Excessive cerumen production), Occurrences (all) [1] | Gross motor delay, Occurrences (all) [1] | Immune System Disorders (Seasonal allergy), Occurrences (all) [1]
0/0: Serious AE Feeding Disorder: Occurrences causally related to treatment/all (Age 2 Months to <2 Years) | Serious AE Gastroenteritis: Deaths causally related to treatment/all (Age 2 Months to <2 Years) | Serious AE Hyperammonaemia: Deaths causally related to treatment/all (Age 2 Months to <2 Years) | Serious AE Influenza: Deaths causally related to treatment/all (Age 2 Months to <2 Years) | Serious AE Lethargy: Deaths causally related to treatment/all (Age 2 Months to <2 Years) | Serious AE Lethargy: Occurrences causally related to treatment/all (Age 2 Months to <2 Years) | Serious AE Medical device site infection: Deaths causally related to treatment/all (Age 2 Months to <2 Years) | Serious AE Medical device site infection: Occurrences causally related to treatment/all (Age 2 Months to <2 Years) | Serious AE Meningitis bacterial: Deaths causally related to treatment/all (Age 2 Months to <2 Years) | Serious AE Meningitis bacterial: Occurrences causally related to treatment/all (Age 2 Months to <2 Years) | Serious AE Neutropenia: Deaths causally related to treatment/all (Age 2 Months to <2 Years) | Serious AE Neutropenia: Occurrences causally related to treatment/all (Age 2 Months to <2 Years) | Serious AE Pyrexia: Deaths causally related to treatment/all (Age 2 Months to <2 Years) | Serious AE Respiratory syncytial virus infection: Deaths causally related to treatment/all (Age 2 Months to <2 Years) | Serious AE Rhinovirus infection: Deaths causally related to treatment/all (Age 2 Months to <2 Years) | Serious AE Status asthmaticus: Deaths causally related to treatment/all (Age 2 Months to <2 Years) | Serious AE Tracheitis: Deaths causally related to treatment/all (Age 2 Months to <2 Years) | Serious AE Tracheitis: Occurrences causally related to treatment/all (Age 2 Months to <2 Years) | Serious AE Upper respiratory tract infection: Deaths causally related to treatment/all (Age 2 Months to <2 Years) | Serious AE Upper respiratory tract infection: Occurrences causally related to treatment/all (Age 2 Months to <2 Years) | Serious AE Urinary tract infection: Deaths causally related to treatment/all (Age 2 Months to <2 Years) | Serious AE Viral infection: Deaths causally related to treatment/all (Age 2 Months to <2 Years) | Serious AE Viral upper respiratory tract infection: Deaths causally related to treatment/all (Age 2 Months to <2 Years) | Serious AE Vomiting: Deaths causally related to treatment/all (Age 2 Months to <2 Years) | Serious AE Vomiting: Occurrences causally related to treatment/all (Age 2 Months to <2 Years)
1: Agitation, Occurrences (all) [1] | Alanine aminotransferase increased, Occurrences (all) [1] | Amino acid level decreased, Occurrences (all) [1] | Ammonia increased, Occurrences (all) [1] | Anion gap increased, Occurrences (all) [1] | Arthropod bite, Occurrences (all) [1] | Aspartate aminotransferase increased, Occurrences (all) [1] | Blood bicarbonate decreased, Occurrences (all) [1] | Blood urea decreased, Occurrences (all) [1] | Body height below normal, Occurrences (all) [1] | Cardiac disorders (Tachycardia), Occurrences (all) [1] | Catheter site rash, Occurrences (all) [1] | Device occlusion, Occurrences (all) [1] | Drug withdrawal syndrome, Occurrences (all) [1] | Dysphagia, Occurrences (all) [1] | Eye discharge, Occurrences (all) [1] | Feeding disorder of infancy or early childhood, Occurrences (all) [1] | Gamma-glutamyltransferase increased, Occurrences (all) [1] | Gastroenteritis, Occurrences (all) [1] | Gastrointestinal viral infection, Occurrences (all) [1] | Hepatobiliary disorders (Hepatic calcification), Occurrences (all) [1] | Hypophagia, Occurrences (all) [1]
2: Amino acid level increased, Occurrences (all) [1] | Angular cheilitis, Occurrences (all) [1] | Candida infection, Occurrences (all) [1] | Carbon dioxide decreased, Occurrences (all) [1] | Constipation, Occurrences (all) [1] | Croup infectious, Occurrences (all) [1] | Decreased appetite, Occurrences (all) [1] | Eczema, Occurrences (all) [1] | Hepatic enzyme increased, Occurrences (all) [1]
4: Dehydration, Occurrences (all) [1]
6: Dermatitis diaper, Occurrences (all) [1] | Diarrhoea, Occurrences (all) [1] | Gastrooesophageal reflux disease, Occurrences (all) [1]
